Experimental data published in patent US8173593B2, “Methods and compositions for emergency contraception using endothelin receptor antagonists” (The Population Council, Inc., priority 2005, dated 2012).

Assays:
superovulated mice [1] = test: oocyte count after antagonist injection during superovulation; type: in vivo; settings: for decrease in number of oocytes: time effect
Procedure: Pharmacological blockers of the endothelin receptor system were implemented to elucidate the role of ET-2 during superovulation. JKC301 (ETRA antagonist) and BQ788 (ETB antagonist) were injected 6 hours after hCG injection and an oocyte count was tabulated. […] BQ788 treatment was further investigated and found to have a time effect. BQ788 posted a 39%, 58%, and 66% decrease in number of oocytes at 4, 6 and 8 hours, respectively, after hCG injection.
(§1) BQ788 was further tested to examine the manner in which this ETB antagonist reduced the number of oocytes. Histological sections of ovaries collected at 18 hours after hCG injection in superovulated mice that received either vehicle or BQ788 through i/p at 8 hours after hCG, were examined and found to have striking differences in the number of corpus lutea (photo not shown).

superovulated mice [2] = test: histological sections of ovaries collected 18 hours after hCG injection; type: in vivo
Procedure: as §1

endothelin-2 = test: inhibition of endothelin-2 function

CCCC[C@@H](NC(=O)[C@@H](Cc1cn(C(=O)OC)c2ccccc12)NC(=O)[C@H](CC(C)(C)C)NC(=O)N1[C@H](C)CCC[C@@H]1C)C(=O)O [BQ788, N-cis-2,6-dimethylpiperidinocarbonyl-L-gamma-methylleucyl-D-1-methoxycarbonyltryptophanyl-D-norleucine]
decrease in the number of oocytes (superovulated mice [1]; antagonist injected 6 hours after hCG injection, comparison of JKC301 and BQ788): 65%
decrease in number of oocytes (superovulated mice [1]; BQ788 given 4 hours after hCG injection): 39%
decrease in number of oocytes (superovulated mice [1]; BQ788 given 6 hours after hCG injection): 58%
decrease in number of oocytes (superovulated mice [1]; BQ788 given 8 hours after hCG injection): 66%
inhibition of ovulation (superovulated mice [2]; given at 8 hours, a stage very close to the ovulation): inhibition of ovulation by blocking follicle rupture in the ovary
number of corpus lutea and unruptured follicles in ovary sections (superovulated mice [2]; i/p at 8 hours after hCG, ovaries collected at 18 hours after hCG, versus vehicle): few corpus lutea and numerous unruptured follicles
function of endothelin-2 (endothelin-2): inhibits function of endothelin-2
